These results are taken from patent publication US10508120B2, “TYK2 inhibitors and uses thereof” (Nimbus Lakshmi, Inc., priority 2017, dated 2019).

Test [1] has as its target human TYK2 (JH2domain-pseudokinase) (Homo sapiens (Human), UniProt P29597). Kind of test: TYK2 JH2 Domain Binding Assay (KINOMEscan). The essentials:
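Pseudokinase domain binding was measured by qPCR of tagged, bead-retained kinase after 1 h room-temperature competition, with 0.9% DMSO and compound up to 30,000 nM in 3-fold steps. Hill-equation Kd, duplicate.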

In another test the target is Tyk2 kinase domain (DH1) (Homo sapiens (Human), UniProt P29597). In words: Tyk2 Radioactive Kinase Assay. Type of test: biochemical. Conditions: compound at 10 μM, ATP 10 μM; for inhibition at 10 µM: read-out: Tyk2 JH1% Inhibition @ 10 μM. The method, boiled down: (§1)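 Each kinase domain is incubated with test compound at 10 μM. Activity is then measured radiometrically and expressed as percent inhibition relative to uninhibited enzyme.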
Sequence of Tyk2 kinase domain (DH1) (P29597 897-1176): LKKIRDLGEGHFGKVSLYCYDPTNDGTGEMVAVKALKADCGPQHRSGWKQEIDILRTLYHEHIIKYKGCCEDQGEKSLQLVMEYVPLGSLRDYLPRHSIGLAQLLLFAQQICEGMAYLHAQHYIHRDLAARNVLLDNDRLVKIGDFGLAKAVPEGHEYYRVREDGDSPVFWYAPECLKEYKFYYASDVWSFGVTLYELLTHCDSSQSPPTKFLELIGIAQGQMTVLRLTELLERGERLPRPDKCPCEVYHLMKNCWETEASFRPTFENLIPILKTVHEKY

In test [2] the target is JAK2/JAK2 homdimeric complex (Homo sapiens (Human), UniProt O60674). In words: GM-CSF Induced pSTAT5 in Human PBMC. The following applies: GM-CSF 5 ng/mL for 20 minutes, pSTAT5 by MSD, read-out: PBMC_GMCSF_pSTAT5 IC50. The test is classed as cell-based.
Sequence of JAK2/JAK2 homdimeric complex (O60674 whole entry, the tested form may be a part): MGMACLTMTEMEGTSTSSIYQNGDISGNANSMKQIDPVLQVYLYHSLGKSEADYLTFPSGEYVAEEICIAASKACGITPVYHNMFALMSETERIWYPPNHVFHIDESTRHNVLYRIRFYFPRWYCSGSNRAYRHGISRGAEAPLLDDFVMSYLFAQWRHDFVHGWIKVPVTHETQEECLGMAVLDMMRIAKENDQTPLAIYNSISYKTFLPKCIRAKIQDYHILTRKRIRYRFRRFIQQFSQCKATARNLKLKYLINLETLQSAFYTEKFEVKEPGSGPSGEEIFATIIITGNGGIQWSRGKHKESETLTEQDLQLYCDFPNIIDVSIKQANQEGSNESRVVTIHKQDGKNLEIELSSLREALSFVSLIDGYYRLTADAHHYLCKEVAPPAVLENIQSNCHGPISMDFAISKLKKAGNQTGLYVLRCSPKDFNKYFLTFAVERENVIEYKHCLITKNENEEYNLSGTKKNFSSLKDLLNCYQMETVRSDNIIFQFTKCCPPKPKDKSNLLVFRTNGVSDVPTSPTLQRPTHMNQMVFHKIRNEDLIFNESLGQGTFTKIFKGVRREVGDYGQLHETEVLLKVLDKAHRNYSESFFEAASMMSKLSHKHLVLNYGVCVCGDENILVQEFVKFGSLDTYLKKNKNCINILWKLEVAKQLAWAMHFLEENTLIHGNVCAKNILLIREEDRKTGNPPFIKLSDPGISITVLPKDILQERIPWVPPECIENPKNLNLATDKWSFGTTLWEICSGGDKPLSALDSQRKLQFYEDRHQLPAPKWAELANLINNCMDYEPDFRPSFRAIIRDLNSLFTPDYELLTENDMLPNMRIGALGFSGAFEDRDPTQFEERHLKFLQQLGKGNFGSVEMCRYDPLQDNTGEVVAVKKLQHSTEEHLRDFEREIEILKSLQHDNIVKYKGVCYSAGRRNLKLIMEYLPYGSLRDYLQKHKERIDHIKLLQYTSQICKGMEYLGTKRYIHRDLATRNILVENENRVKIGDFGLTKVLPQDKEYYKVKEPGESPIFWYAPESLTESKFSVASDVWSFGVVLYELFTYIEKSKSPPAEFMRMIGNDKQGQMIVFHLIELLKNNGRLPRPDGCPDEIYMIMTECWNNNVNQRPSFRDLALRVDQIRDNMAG
Sequence of JAK2/JAK2 homdimeric complex (P32927 17-897 partner): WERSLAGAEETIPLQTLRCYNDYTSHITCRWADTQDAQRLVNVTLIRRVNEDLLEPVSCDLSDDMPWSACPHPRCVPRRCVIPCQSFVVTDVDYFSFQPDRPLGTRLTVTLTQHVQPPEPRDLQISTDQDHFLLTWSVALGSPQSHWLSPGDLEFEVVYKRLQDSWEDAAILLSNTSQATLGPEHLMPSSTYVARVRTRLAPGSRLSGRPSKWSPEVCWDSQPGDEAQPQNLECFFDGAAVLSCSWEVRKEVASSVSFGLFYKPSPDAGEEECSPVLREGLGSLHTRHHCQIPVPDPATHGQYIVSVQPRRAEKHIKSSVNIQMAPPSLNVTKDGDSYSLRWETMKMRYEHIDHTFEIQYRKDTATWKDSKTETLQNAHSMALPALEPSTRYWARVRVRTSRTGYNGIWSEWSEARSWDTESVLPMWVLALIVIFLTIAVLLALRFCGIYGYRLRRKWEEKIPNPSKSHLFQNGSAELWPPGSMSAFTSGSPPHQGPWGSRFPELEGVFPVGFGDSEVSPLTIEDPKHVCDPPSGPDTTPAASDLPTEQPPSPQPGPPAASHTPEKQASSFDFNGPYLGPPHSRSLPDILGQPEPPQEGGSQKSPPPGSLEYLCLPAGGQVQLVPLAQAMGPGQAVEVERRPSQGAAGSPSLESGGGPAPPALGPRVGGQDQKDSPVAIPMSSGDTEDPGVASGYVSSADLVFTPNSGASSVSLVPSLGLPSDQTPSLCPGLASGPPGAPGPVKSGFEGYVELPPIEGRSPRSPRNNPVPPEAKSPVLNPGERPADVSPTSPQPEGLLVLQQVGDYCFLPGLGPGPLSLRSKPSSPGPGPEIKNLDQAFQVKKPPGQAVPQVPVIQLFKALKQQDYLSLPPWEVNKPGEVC
Another test addresses JAK2 kinase domain (JH1) (Homo sapiens (Human), UniProt O60674). Kind of test: JAK2 Radioactive Kinase Assay. Type of test: biochemical. The following applies: compound at 10 μM, ATP 10 μM; for inhibition at 10 µM: read-out: JAK2 JH1% Inhibition @ 10 μM. The method, boiled down:
as §1

The target in test [3] is Tyk2/JAK2 (heterodimeric complex) (Homo sapiens (Human), UniProt P29597). In words: IL-12 Induced pSTAT4 in Human PBMC. Type of test: cell-based. Conditions: 1.7 ng/mL IL-12. From the text:
The IL-12 Induced pSTAT4 assay evaluates the inhibition of IL-12 induced STAT4 phophorylation mediated by Tyk2/JAK2 (heterodimeric complex).

The Kd is the constant that tells how readily two partners part at equilibrium. A lower Kd goes with a tighter complex. What is called inhibition is the change of the read-out against control, counted positive when it falls. As a reminder, the IC50 is the midpoint of a concentration-inhibition curve.

Sequence of human TYK2 (JH2domain-pseudokinase) (P29597 556-888): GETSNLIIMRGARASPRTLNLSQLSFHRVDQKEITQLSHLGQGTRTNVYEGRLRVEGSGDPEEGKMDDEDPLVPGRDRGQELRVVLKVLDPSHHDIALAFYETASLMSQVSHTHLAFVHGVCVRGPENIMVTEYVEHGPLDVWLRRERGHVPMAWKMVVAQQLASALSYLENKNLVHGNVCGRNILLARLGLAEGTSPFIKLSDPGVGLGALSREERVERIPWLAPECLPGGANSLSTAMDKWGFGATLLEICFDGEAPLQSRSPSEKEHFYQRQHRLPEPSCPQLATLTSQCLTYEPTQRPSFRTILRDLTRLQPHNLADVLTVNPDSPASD
Sequence of Tyk2/JAK2 (heterodimeric complex) (P29597 whole entry, other chains not shown): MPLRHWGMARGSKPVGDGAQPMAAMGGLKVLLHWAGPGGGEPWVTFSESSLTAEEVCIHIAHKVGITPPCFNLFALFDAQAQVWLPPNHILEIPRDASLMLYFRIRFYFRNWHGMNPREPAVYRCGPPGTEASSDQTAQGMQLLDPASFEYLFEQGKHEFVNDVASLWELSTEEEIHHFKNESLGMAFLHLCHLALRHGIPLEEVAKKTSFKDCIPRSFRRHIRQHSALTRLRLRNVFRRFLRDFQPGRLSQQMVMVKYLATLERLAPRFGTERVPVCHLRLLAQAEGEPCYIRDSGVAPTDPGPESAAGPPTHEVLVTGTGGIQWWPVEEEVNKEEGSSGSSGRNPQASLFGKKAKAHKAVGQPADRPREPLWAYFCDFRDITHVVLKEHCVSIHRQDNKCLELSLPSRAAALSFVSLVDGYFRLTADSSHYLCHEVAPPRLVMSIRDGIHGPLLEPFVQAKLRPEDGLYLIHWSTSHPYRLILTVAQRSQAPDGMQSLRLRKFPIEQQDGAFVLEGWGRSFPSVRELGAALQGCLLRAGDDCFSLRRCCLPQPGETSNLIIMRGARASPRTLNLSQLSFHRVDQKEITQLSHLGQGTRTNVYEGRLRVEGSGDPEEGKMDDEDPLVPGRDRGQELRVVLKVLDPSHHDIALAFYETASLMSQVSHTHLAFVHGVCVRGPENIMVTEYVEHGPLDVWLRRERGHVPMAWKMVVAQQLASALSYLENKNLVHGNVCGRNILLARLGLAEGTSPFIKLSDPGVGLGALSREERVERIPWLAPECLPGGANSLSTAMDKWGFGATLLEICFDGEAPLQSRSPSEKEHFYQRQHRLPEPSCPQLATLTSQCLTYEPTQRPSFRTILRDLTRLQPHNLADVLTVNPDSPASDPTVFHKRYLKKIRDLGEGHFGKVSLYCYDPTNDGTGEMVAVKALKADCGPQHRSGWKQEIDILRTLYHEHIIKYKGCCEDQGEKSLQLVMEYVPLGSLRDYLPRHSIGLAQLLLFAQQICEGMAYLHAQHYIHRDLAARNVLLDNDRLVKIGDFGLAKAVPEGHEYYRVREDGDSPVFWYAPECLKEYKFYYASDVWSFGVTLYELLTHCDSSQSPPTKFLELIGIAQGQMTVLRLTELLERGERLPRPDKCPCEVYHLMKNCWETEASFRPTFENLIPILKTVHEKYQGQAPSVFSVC
Sequence of JAK2 kinase domain (JH1) (O60674 849-1124): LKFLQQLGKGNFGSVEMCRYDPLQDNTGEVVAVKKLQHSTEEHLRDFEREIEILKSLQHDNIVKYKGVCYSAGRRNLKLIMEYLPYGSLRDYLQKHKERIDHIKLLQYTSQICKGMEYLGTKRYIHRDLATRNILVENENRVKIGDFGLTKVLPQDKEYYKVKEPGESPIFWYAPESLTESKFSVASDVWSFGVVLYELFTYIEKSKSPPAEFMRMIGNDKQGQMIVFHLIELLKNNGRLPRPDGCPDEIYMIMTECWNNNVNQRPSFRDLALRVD

In test [1], `CNc1cc(Nc2cccc(N3CCCC3=O)n2)nc2c(C(N)=O)cnn12` [I-47] returned a Kd of less than 0.0002 µM. Also, the inhibition at 10 µM on Tyk2 kinase domain (DH1) and at JAK2 kinase domain (JH1) was less than 50% in each case. The figures for the IC50 in test [2] and in test [3] were greater than 0.3 µM and less than 0.1 µM, respectively.
`CNc1cc(Nc2cccnc2OC(F)F)nc2c(C(=O)NC3CC3)cnn12` [I-154] showed a Kd in test [1] of 0.0002 to 0.001 µM. Besides, the inhibition at 10 µM is less than 50% at Tyk2 kinase domain (DH1) and 50 to 70% on JAK2 kinase domain (JH1). For the same compound, the IC50 was greater than 12.5 µM in test [2] and less than 0.1 µM in test [3].
With `CNc1cc(Nc2cccnc2OCCOC)nc2c(C(=O)NC3CCC3)cnn12` [I-219], in test [1], the dissociation constant Kd was less than 0.0002 µM. In addition, the inhibition at 10 µM on Tyk2 kinase domain (DH1) and on JAK2 kinase domain (JH1) was less than 50% each time. In addition, the values for the IC50 in test [2] and in test [3] were greater than 12.5 µM and less than 0.1 µM, respectively.
In turn, `CNc1cc(-c2cn(C(C)C)c3ncccc23)nc2c(C(=O)N[C@H]3C[C@H](O)C3)cnn12` [I-630, N-((1r, 3r)-3-hydroxycyclobutyl)-5-(1-isopropyl-1H-pyrrolo[2,3-b]pyridin-3-yl)-7-(methylamino)pyrazolo[1,5-a]pyrimidine-3-carboxamide] gave a Kd in test [1] of less than 0.0002 µM. Besides, the inhibition at 10 µM at Tyk2 kinase domain (DH1) and at JAK2 kinase domain (JH1) was less than 50% throughout. Further, the IC50 was greater than 2.5 µM in test [2] and less than 0.1 µM in test [3].
For the compound `CNc1cc(Nc2cccn(-c3cc(C)on3)c2=O)nc2c(C(=O)NC3CC3)cnn12` [I-162], the Kd in test [1] is less than 0.0002 µM. In addition, the inhibition at 10 µM at Tyk2 kinase domain (DH1) and at JAK2 kinase domain (JH1) was less than 50% throughout. Besides, the IC50 in test [2] was greater than 2.5 µM; in test [3], less than 0.1 µM.
Take `CNc1cc(Nc2cccn(-c3ccccn3)c2=O)nc2c(C(=O)N[C@H]3C[C@H]3F)cnn12` [I-681]: the Kd in test [1] is less than 0.0002 µM. Also, the inhibition at 10 µM on Tyk2 kinase domain (DH1) and at JAK2 kinase domain (JH1) was less than 50% throughout. The IC50 in test [2] was greater than 12.5 µM; in test [3] it was less than 0.1 µM.
`CNc1cc(Nc2cccn(-c3cccc(C(C)(C)O)n3)c2=O)nc2c(C(=O)N[C@H]3C[C@H]3F)cnn12` [I-123] registered a Kd in test [1] of less than 0.0002 µM. The inhibition at 10 µM on Tyk2 kinase domain (DH1) and at JAK2 kinase domain (JH1) was less than 50% throughout. The IC50 in test [2] is greater than 50 µM; in test [3] it was less than 0.1 µM.
`CNc1cc(Nc2cccn([C@H]3CC[C@H](OC)CC3)c2=O)nc2c(C(=O)N[C@H]3C[C@H]3F)cnn12` [I-344]: the Kd in test [1] is less than 0.0002 µM. Besides, the inhibition at 10 µM on Tyk2 kinase domain (DH1) and at JAK2 kinase domain (JH1) was less than 50% in each case. Also, the IC50 in test [2] is greater than 12.5 µM; in test [3] it was less than 0.1 µM.
`CNc1cc(Nc2cc(C)cn(-c3cnn(C)c3)c2=O)nc2c(C(N)=O)cnn12` [I-31] showed a Kd in test [1] of less than 0.0002 µM. For the same compound, the inhibition at 10 µM on Tyk2 kinase domain (DH1) and on JAK2 kinase domain (JH1) was less than 50% in each case. The results for the IC50 in test [2] and in test [3] were greater than 0.3 µM and 0.1 to 0.5 µM, respectively.
Compound `CNc1cc(Nc2cccn(-c3nccs3)c2=O)nc2c(C(=O)N[C@H]3C[C@H]3F)cnn12` [I-243] yielded an equilibrium dissociation constant (Kd) in test [1] of 0.0002 to 0.001 µM. The inhibition at 10 µM at Tyk2 kinase domain (DH1) and at JAK2 kinase domain (JH1) was less than 50% each time. For the same compound, the IC50 in test [2] is greater than 2.5 µM; in test [3], less than 0.1 µM.
Turning to `CNc1cc(Nc2cccn([C@H]3CC[C@](C)(OC)CC3)c2=O)nc2c(C(=O)N[C@H]3C[C@H]3F)cnn12` [I-362], in test [1], the Kd is less than 0.0002 µM. Besides, the inhibition at 10 µM on Tyk2 kinase domain (DH1) and at JAK2 kinase domain (JH1) was less than 50% in each case. Moreover, the figures for the IC50 in test [2] and in test [3] were greater than 50 µM and less than 0.1 µM, respectively.
Regarding `CNc1cc(Nc2cccn(-c3cn(C)nc3F)c2=O)nc2c(C(=O)NC3CC3)cnn12` [I-606], the Kd in test [1] was less than 0.0002 µM. Also, the inhibition at 10 µM at Tyk2 kinase domain (DH1) and on JAK2 kinase domain (JH1) was less than 50% throughout. The figures for the IC50 in test [2] and in test [3] were greater than 12.5 µM and 0.1 to 0.5 µM, respectively.
`CNc1cc(Nc2cccn(-c3ncc(C)s3)c2=O)nc2c(C(=O)N[C@H]3CC[C@@H]3O)cnn12` (stereo in doubt) [I-676, N-(2-hydroxycyclobutyl)-7-(methylamino)-5-((1-(5-methylthiazol-2-yl)-2-oxo-1,2-dihydropyridin-3-yl)amino)pyrazolo[1,5-a]pyrimidine-3-carboxamide] gave a Kd in test [1] of less than 0.0002 µM. The inhibition at 10 µM on Tyk2 kinase domain (DH1) and at JAK2 kinase domain (JH1) was less than 50% in each case. The IC50 in test [2] was greater than 2.5 µM; in test [3], less than 0.1 µM.
In test [1], `CNc1cc(Nc2cccn(-c3cnco3)c2=O)nc2c(C(=O)N[C@@H]3C[C@@H]3F)cnn12` [I-762] yielded a Kd of less than 0.0002 µM. The inhibition at 10 µM at Tyk2 kinase domain (DH1) and at JAK2 kinase domain (JH1) was less than 50% in each case. The 50% inhibitory concentration (IC50) was greater than 2.5 µM in test [2] and less than 0.1 µM in test [3].
For `CNc1cc(Nc2cccn([C@H]3CCCOC3)c2=O)nc2c(C(=O)N[C@@H]3CC[C@H]3O)cnn12` [I-725], the Kd in test [1] is less than 0.0002 µM. The inhibition at 10 µM at Tyk2 kinase domain (DH1) and at JAK2 kinase domain (JH1) was less than 50% each time. Moreover, the IC50 was greater than 2.5 µM in test [2] and less than 0.1 µM in test [3].
In turn, `CNc1cc(Nc2cc(Cl)cn(-c3cnn(C)c3)c2=O)nc2c(C(=O)N[C@H]3C[C@H]3F)cnn12` [I-312] displayed a Kd in test [1] of less than 0.0002 µM. Also, the inhibition at 10 µM on Tyk2 kinase domain (DH1) and at JAK2 kinase domain (JH1) was less than 50% throughout. Further, the results for the IC50 in test [2] and in test [3] were greater than 12.5 µM and less than 0.1 µM, respectively.
`CNc1cc(Nc2cc(F)cnc2OC2CC2)nc2c(C(=O)NC3CCC3)cnn12` [I-276]: the Kd in test [1] was less than 0.0002 µM. Also, the inhibition at 10 µM on Tyk2 kinase domain (DH1) and on JAK2 kinase domain (JH1) was less than 50% throughout. In addition, the IC50 in test [2] was greater than 50 µM; in test [3] it was less than 0.1 µM.
Compound `CNc1cc(Nc2cccc([C@H]3CCCOC3)n2)nc2c(C(=O)N[C@H]3C[C@H]3F)cnn12` [I-563] had a Kd in test [1] of less than 0.0002 µM. For the same compound, the inhibition at 10 µM at Tyk2 kinase domain (DH1) and on JAK2 kinase domain (JH1) was less than 50% in each case. The values for the IC50 in test [2] and in test [3] were greater than 50 µM and less than 0.1 µM, respectively.
In turn, `CCOc1ccc(-n2cccc(Nc3cc(NC)n4ncc(C(=O)N[C@H]5C[C@H]5F)c4n3)c2=O)nn1` [I-117] came in with a Kd in test [1] of less than 0.0002 µM. The inhibition at 10 µM at Tyk2 kinase domain (DH1) and at JAK2 kinase domain (JH1) was less than 50% each time. Moreover, the 50% inhibitory concentration (IC50) in test [2] is greater than 2.5 µM; in test [3] it was less than 0.1 µM.
Take `CNc1cc(Nc2cccn([C@@H]3CCCOC3)c2=O)nc2c(C(=O)N[C@@H]3C[C@@H]3F)cnn12` [I-474]: the Kd in test [1] was less than 0.0002 µM. Further, the inhibition at 10 µM at Tyk2 kinase domain (DH1) and at JAK2 kinase domain (JH1) was less than 50% each time. Moreover, the IC50 is greater than 12.5 µM in test [2] and less than 0.1 µM in test [3].
In the case of `CNc1cc(Nc2cccn(C3CCOCC3)c2=O)nc2c(C(=O)N[C@H]3C[C@H]3F)cnn12` [I-330], the Kd in test [1] was less than 0.0002 µM. Further, the inhibition at 10 µM on Tyk2 kinase domain (DH1) and at JAK2 kinase domain (JH1) was less than 50% throughout. In addition, the IC50 in test [2] is greater than 2.5 µM; in test [3] it was less than 0.1 µM.
`CNc1cc(-c2c[nH]c3c(C4CCOCC4)cc(Cl)cc23)nc2c(C(N)=O)cnn12` [I-190] showed a Kd in test [1] of less than 0.0002 µM. Besides, the inhibition at 10 µM at Tyk2 kinase domain (DH1) and at JAK2 kinase domain (JH1) was less than 50% in each case. Further, the IC50 was greater than 12.5 µM in test [2] and less than 0.1 µM in test [3].
In turn, `CNc1cc(Nc2cccn(-c3ncccc3F)c2=O)nc2c(C(=O)NCC(C)(C)CO)cnn12` [I-510] displayed a Kd in test [1] of less than 0.0002 µM. The inhibition at 10 µM on Tyk2 kinase domain (DH1) and on JAK2 kinase domain (JH1) was less than 50% throughout. For the same compound, the IC50 was greater than 50 µM in test [2] and less than 0.1 µM in test [3].
Compound `CNc1cc(Nc2cc(F)cn(-c3cnn(C)c3)c2=O)nc2c(C(=O)N[C@H]3C[C@H]3F)cnn12` [I-381] gave a Kd in test [1] of less than 0.0002 µM. For the same compound, the inhibition at 10 µM at Tyk2 kinase domain (DH1) and on JAK2 kinase domain (JH1) was less than 50% throughout. The IC50 in test [2] was greater than 12.5 µM; in test [3], less than 0.1 µM.
Compound `CNc1cc(Nc2cccc(N3CCOC3=O)n2)nc2c(C(=O)N[C@H]3C[C@H]3F)cnn12` [I-236] returned a Kd in test [1] of less than 0.0002 µM. Further, the inhibition at 10 µM at Tyk2 kinase domain (DH1) and on JAK2 kinase domain (JH1) was less than 50% throughout. In addition, the IC50 in test [2] is greater than 2.5 µM; in test [3], less than 0.1 µM.
`CNc1cc(-c2cn(C(C)C)c3ncccc23)nc2c(C(=O)N[C@H]3CC[C@@H]3O)cnn12` [I-639] yielded a Kd in test [1] of less than 0.0002 µM. In addition, the “Tyk2 JH1% Inhibition @ 10 μM” value on Tyk2 kinase domain (DH1) was “A (percent inhibition at 10 μM lower than 50)”. Moreover, the IC50 is greater than 12.5 µM in test [2] and less than 0.1 µM in test [3]. For the same compound, the “JAK2 JH1% Inhibition @ 10 μM” value on JAK2 kinase domain (JH1) is on record as “A (percent inhibition at 10 μM lower than 50)”.
For `CNc1cc(Nc2cccn([C@H]3CC[C@@](C)(OC)CC3)c2=O)nc2c(C(=O)N[C@H]3C[C@H]3F)cnn12` [I-360], the Kd in test [1] was less than 0.0002 µM. The inhibition at 10 µM on Tyk2 kinase domain (DH1) and on JAK2 kinase domain (JH1) was less than 50% throughout. Also, the IC50 was greater than 50 µM in test [2] and less than 0.1 µM in test [3].
